{
  "source": "patent US10745429B2",
  "about": "“Phospholidines that are Bcl family antagonists for use in clinical management of conditions caused or mediated by senescent cells and for treating cancer” (Unity Biotechnology, Inc., priority 2018, dated 2020)",
  "key": {"[1]": {"system": "primary cells from patients with B-cell malignancies", "details": "in vitro studies; cited from earlier work"}, "[2]": {"system": "cancer cells in human patients", "details": "cited from earlier work"}, "[3]": {"system": "3MR and INK-ATTAC mice exposed to cigarette smoke", "experiment": "Cigarette smoke induced COPD model, pulse oximetry", "format": "in vivo, mouse", "details": "after two months of cigarette smoke exposure, compared with untreated controls; FIG. 8", "description": "As a model for chronic obstructive pulmonary disease (COPD), mice were exposed to cigarette smoke.\nThe effect of a senolytic agent on the mice exposed to smoke is assessed by senescent cell clearance, lung function, and histopathology.\nThe mice used in this study include the 3MR strain, described in US 2017/0027139 A1 and in Demaria et al., Dev Cell. 2014 Dec. 22; 31(6): 722-733. The 3MR mouse has a transgene encoding thymidine kinase that converts the prodrug ganciclovir (GCV) to a compound that is lethal to cells. The enzyme in the transgene is placed under control of the p16 promoter, which causes it to be specifically expressed in senescent cells. Treatment of the mice with GCV eliminates senescent cells.\nOther mice used in this study include the INK-ATTAC strain, described in US 2015/0296755 A1 and in Baker et al., Nature 2011 Nov. 2; 479(7372):232-236. The INK-ATTAC mouse has a transgene encoding switchable caspase 8 under control of the p16 promoter. The caspase 8 can be activated by treating the mice with the switch compound AP20187, whereupon the caspase 8 directly induces apoptosis in senescent cells, eliminating them from the mouse.\nTo conduct the experiment, six-week-old 3MR (n=35) or INK-ATTAC (n=35) mice were chronically exposed to cigarette smoke generated from a Teague TE-10 system, an automatically-controlled cigarette smoking machine that produces a combination of side-stream and mainstream cigarette smoke in a chamber, which is transported to a collecting and mixing chamber where varying amounts of air is mixed with the smoke mixture. The COPD protocol was adapted from the COPD core facility at Johns Hopkins University (Rangasamy et al., 2004, J. Clin. Invest. 114:1248-1259; Yao et al., 2012, J. Clin. Invest. 122:2032-2045).\nMice received a total of 6 hours of cigarette smoke exposure per day, 5 days a week for 6 months. Each lighted cigarette (3R4F research cigarettes containing 10.9 mg of total particulate matter (TPM), 9.4 mg of tar, and 0.726 mg of nicotine, and 11.9 mg carbon monoxide per cigarette [University of Kentucky, Lexington, Ky.]) was puffed for 2 seconds and once every minute for a total of 8 puffs, with the flow rate of 1.05 L/min, to provide a standard puff of 35 cm3. […] The smoke chamber atmosphere was monitored for total suspended particulates (80-120 mg/m3) and carbon monoxide (350 ppm). […]\nAfter two months of cigarette smoke (CS) exposure, lung function was assessed by monitoring oxygen saturation using the MouseSTAT PhysioSuite™ pulse oximeter (Kent Scientific). […] Mice were monitored for 30 seconds and the average peripheral capillary oxygen saturation (SpO2) measurement over this duration was calculated."}, "[4]": {"system": "C57BL/6J mice with osteoarthritis induced by ACL surgery", "experiment": "Osteoarthritis model: anterior cruciate ligament surgery, intra-articular treatment", "format": "in vivo, mouse", "description": "The model was implemented as follows. C57BL/6J mice underwent surgery to cut the anterior cruciate ligament of one rear limb to induce osteoarthritis in the joint of that limb. During week 3 and week 4 post-surgery, the mice were treated with 5.8 μg of Nutlin-3A (n=7) per operated knee by intra-articular injection, q.o.d. for 2 weeks. At the end of 4 weeks post-surgery, joints of the mice were monitored for presence of senescent cells, assessed for function, monitored for markers of inflammation, and underwent histological assessment.\nTwo control groups of mice were included in the studies performed: one group comprising C57BL/6J or 3MR mice that had undergone a sham surgery (n=3) (i.e., surgical procedures followed except for cutting the ACL) and intra-articular injections of vehicle parallel to the GCV (ganciclovir) treated group; and one group comprising C57BL/6J or 3MR mice that had undergone an ACL surgery and received intra-articular injections of vehicle (n=5) parallel to the GCV-treated group. RNA from the operated joints of mice from the Nutlin-3A treated mice was analyzed for expression of SASP factors (mmp3, IL-6) and senescence markers (p16). qRT-PCR was performed to detect mRNA levels.\nFunction of the limbs was assessed 4 weeks post-surgery by a weight bearing test to determine which leg the mice favored. The mice were allowed to acclimate to the chamber on at least three occasions prior to taking measurements. Mice were maneuvered inside the chamber to stand with one hind paw on each scale. The weight that was placed on each hind limb was measured over a three second period. At least three separate measurements were made for each animal at each time point. The results were expressed as the percentage of the weight placed on the operated limb versus the contralateral unoperated limb."}, "[5]": {"system": "LDLR-/- mice fed a high fat diet", "experiment": "Atherosclerosis model, LDLR-/- mice on a high fat diet, systemic treatment", "format": "in vivo, mouse", "description": "This example illustrates the testing of an MDM2 inhibitor in a mouse model for treatment of atherosclerosis. The test compounds are administered systemically rather than locally. The model is done in an LDLR−/− strain of mice, which are deficient in the receptor for low-density lipoprotein. The experiments described here can be adapted mutatis mutandis to test and develop other types of inhibitors for use in clinical therapy.\nTwo groups of LDLR−/− mice (10 weeks) are fed a high fat diet (HFD) (Harlan Teklad TD.88137) having 42% calories from fat, beginning at Week 0 and throughout the study. Two groups of LDLR−/− mice (10 weeks) are fed normal chow (−HFD). From weeks 0-2, one group of HFD mice and −HFD mice are treated with Nutlin-3A (25 mg/kg, intraperitoneally). One treatment cycle is 14 days treatment, 14 days off. Vehicle is administered to one group of HFD mice and one group of −HFD mice. At week 4 (timepoint 1), one group of mice are sacrificed and to assess presence of senescent cells in the plaques. For the some of the remaining mice, Nutlin-3A and vehicle administration is repeated from weeks 4-6. At week 8 (timepoint 2), the mice are sacrificed and to assess presence of senescent cells in the plaques. The remaining mice are treated with Nutlin-3A or vehicle from weeks 8-10. At week 12 (timepoint 3), the mice are sacrificed and to assess the level of plaque and the number of senescent cells in the plaques.\nPlasma lipid levels were measured in LDLR−/− mice fed a HFD and treated with Nutlin-3A or vehicle at timepoint 1 as compared with mice fed a −HFD (n=3 per group). Plasma was collected mid-afternoon and analyzed for circulating lipids and lipoproteins.\nAt the end of timepoint 1, LDLR−/− mice fed a HFD and treated with Nutlin-3A or vehicle were sacrificed (n=3, all groups), and the aortic arches were dissected for RT-PCR analysis of SASP factors and senescent cell markers. Values were normalized to GAPDH and expressed as fold-change versus age-matched, vehicle-treated LDLR−/− mice on a normal diet.\nAt the end of timepoint 2, LDLR−/− mice fed a HFD and treated with Nutlin-3A or vehicle (n=3 for all groups) were sacrificed, and aortic arches were dissected for RT-PCR analysis of SASP factors and senescent cell markers. Values were normalized to GAPDH and expressed as fold-change versus age-matched, vehicle-treated LDLR−/− mice on a normal diet.\nAt the end of timepoint 3, LDLR−/− mice fed a HFD and treated with Nutlin-3A or vehicle (n=3 for all groups) were sacrificed, and aortas were dissected and stained with Sudan IV to detect the presence of lipid. Body composition of the mice was analyzed by MRI, and circulating blood cells were counted by Hemavet™."}},
  "data": [
    {"smiles": "CN(C)CC[C@H](CSc1ccccc1)Nc1ccc(S(=O)(=O)NC(=O)c2ccc(N3CCN(Cc4ccccc4-c4ccc(Cl)cc4)CC3)cc2)cc1[N+](=O)[O-]", "note": "[ABT-737]", "values": [
      {"measurement": "sensitivity of primary cells from patients with B-cell malignancies", "setting": "[1]", "value": "sensitive"},
      {"measurement": "efficacy against cancer cells in human patients", "setting": "[2]", "value": "effective against some types of cancer cells"}
    ]},
    {"smiles": "Nc1nc(O)c2ncn(COC(CO)CO)c2n1", "note": "[ganciclovir]", "values": [
      {"measurement": "peripheral capillary oxygen saturation (SpO2) levels", "setting": "[3]", "value": "statistically significant increases"}
    ]},
    {"smiles": "COc1ccc(C2=N[C@@H](c3ccc(Cl)cc3)[C@@H](c3ccc(Cl)cc3)N2C(=O)N2CCNC(=O)C2)c(OC(C)C)c1", "note": "[Nutlin-3A]", "values": [
      {"measurement": "presence of senescent cells in the joint", "setting": "[4]; 5.8 μg per operated knee intra-articular, 4 weeks post-surgery", "value": "cleared senescent cells from the joint"},
      {"measurement": "weight bearing test: weight placed on the operated limb versus the contralateral unoperated limb", "setting": "[4]; 4 weeks post-surgery, effect = favoring the unoperated hind limb, FIG. 6A", "value": "abrogated this effect"},
      {"measurement": "histopathology of joint tissue: destruction of the proteoglycan layer", "setting": "[4]; effect = proteoglycan layer destroyed by ACL surgery, FIGS. 6B-6D", "value": "completely abrogated this effect"},
      {"measurement": "expression of p16 in the tissue (mRNA, qRT-PCR)", "setting": "[4]; operated joints, 5.8 μg per operated knee intra-articular q.o.d. for 2 weeks, 4 weeks post-surgery, FIG. 5A", "value": "reduced the expression back to below the level of the controls"},
      {"measurement": "expression of IL-6 in the tissue (mRNA, qRT-PCR)", "setting": "[4]; operated joints, 5.8 μg per operated knee intra-articular q.o.d. for 2 weeks, 4 weeks post-surgery, FIG. 5B", "value": "reduced the expression back to below the level of the controls"},
      {"measurement": "expression of MMP13 in the tissue (mRNA, qRT-PCR)", "setting": "[4]; operated joints, 5.8 μg per operated knee intra-articular q.o.d. for 2 weeks, 4 weeks post-surgery, FIG. 5C", "value": "reduced the expression back to below the level of the controls"},
      {"measurement": "peripheral capillary oxygen saturation (SpO2) levels", "setting": "[3]", "value": "statistically significant increases"},
      {"measurement": "expression of SASP factors and senescent cell markers MMP3, MMP13, PAI1, p21, IGFBP2, IL-1A, IL-1B in the aortic arch (RT-PCR)", "setting": "[5]; 25 mg/kg intraperitoneally, timepoint 1 (week 4), after one treatment cycle", "value": "reduced expression of several SASP factors and senescent cell markers"},
      {"measurement": "expression of SASP factors and senescent cell markers in the aortic arch (RT-PCR)", "setting": "[5]; 25 mg/kg intraperitoneally, timepoint 2 (week 8), multiple treatment cycles", "value": "reduced expression of most markers"},
      {"measurement": "reduction of the surface area covered by plaques in the descending aorta (Sudan IV)", "setting": "[5]; 25 mg/kg intraperitoneally, timepoint 3 (week 12), FIG. 9", "value": "about 45%"},
      {"measurement": "body fat composition of mice fed the high fat diet (MRI)", "setting": "[5]; timepoint 3 (week 12)", "value": "decreased"},
      {"measurement": "mass of mice fed the high fat diet", "setting": "[5]; timepoint 3 (week 12)", "value": "decreased"},
      {"measurement": "lymphocyte counts versus vehicle treated mice", "setting": "[5]; timepoint 3 (week 12), Hemavet", "value": "equivalent"},
      {"measurement": "platelet counts versus vehicle treated mice", "setting": "[5]; timepoint 3 (week 12), Hemavet", "value": "equivalent"}
    ]},
    {"smiles": "CC1(C)CCC(c2ccc(Cl)cc2)=C(CN2CCN(c3ccc(C(=O)NS(=O)(=O)c4ccc(N[C@H](CCN5CCOCC5)CSc5ccccc5)c(S(=O)(=O)C(F)(F)F)c4)cc3)CC2)C1", "note": "[ABT-263]", "values": [
      {"measurement": "peripheral capillary oxygen saturation (SpO2) levels", "setting": "[3]", "value": "statistically significant increases"}
    ]},
    {"smiles": "CC[C@H](C(=O)N1CCCC[C@H]1C(=O)O[C@H](CCc1ccc(OC)c(OC)c1)c1cccc(OCC(=O)NCC(CNC(=O)COc2cccc([C@@H](CCc3ccc(OC)c(OC)c3)OC(=O)[C@@H]3CCCCN3C(=O)[C@@H](CC)c3cc(OC)c(OC)c(OC)c3)c2)CN(C)C)c1)c1cc(OC)c(OC)c(OC)c1", "note": "[AP2018]", "values": [
      {"measurement": "peripheral capillary oxygen saturation (SpO2) levels", "setting": "[3]", "value": "statistically significant increases"}
    ]}
  ]
}
